The data set is classed as physicochemical. The following applies: for retention of 2-n-octyl-3-isothiazolone active ingredient after 14 days: 1% solution in 95% propylene glycol/5% water, pH 10.0-10.1 (NaOH), no metal salt stabilizers. As for the experimental part: A 2-n-octyl-3-isothiazolone solution (1%) was prepared in 95% propylene glycol/5% water and the pH was adjusted to 10.0-10.1 with NaOH; no metal salt stabilizers were added to the mixture. Samples of this mixture were then stored at ambient temperature (approximately 25° C.) and also in an oven at 40° C. After 14 days, there was no loss of 2-n-octyl-3-isothiazolone active ingredient (100% retention) for samples stored at either 25° C. or 40° C.

Read-outs that look alike come from different tables or passages of the source.

The results in this text go back to patent publication US20030232906A1, “Stabilized coating compositions containing isothiazolone” (priority 2002, published 2003).

Consider `CCCCCCCCn1sccc1=O` [2-n-octyl-3-isothiazolone, 2-n-Octyl-3-isothiazolone], for which the “stability at high pH in the absence of amines (in words)” value was “stable”. The “retention of 2-n-octyl-3-isothiazolone active ingredient after 14 days” value (40° C.) came out at 100%. In addition, the “retention of 2-n-octyl-3-isothiazolone active ingredient after 14 days” value (approx. 25° C.) was 100%.
